Experimental findings from patent US11731973B2, “Substituted pyrazolo[3,4-d]pyrimidines as mTOR inhibitors” (GALDERMA RESEARCH & DEVELOPMENT, priority 2018, dated 2023) are described below.

In one experiment the target is mTOR (Homo sapiens (Human), UniProt P42345). Briefly: Inhibitory activity on mTOR kinase (LANTHASCREEN TR-FRET). To be noted: 1 hour reaction at room temperature. Type of experiment: biochemical. (In general: In TR-FRET formats the signal depends on donor and acceptor labels being close together.)
For a further experiment, the target named is mTORC1 (Homo sapiens (Human), UniProt P42345). As to the kind of experiment: mTORC1 inhibitory activity: phosphorylation of S6RP in A431 cells (HTRF). To be noted: 3 hours at 37° C. The experiment is classed as cell-based.
For a further experiment, the target named is mTORC2 (Homo sapiens (Human), UniProt P42345). Briefly: mTORC2 inhibitory activity: phosphorylation of AKT in A431 cells (HTRF). The experiment is classed as cell-based. The note with it: 3 hours at 37° C.

Method for mTORC1: (§1) The serial dilutions of the test molecules are added (0.1% DMSO final). After incubation for 3 hours at 37° C., the phosphorylation of the biomarkers S6RP (mTORC1) and AKT (mTORC2) is measured using the HTRF technology (Cisbio) according to the supplier's recommendations. […] The IC50 values are calculated using a 4-parameter logistic model with the aid of the XLFit software (IDBS).
Method for mTORC2: as §1

Consider `CC(C)C[C@H](C)n1nc(-c2cc3nc(N)oc3cc2F)c2c(N)nc(N)nc21` [Example 2, 3-(2-amino-6-fluorobenzoxazol-5-yl)-1-((S)-1,3-dimethylbutyl)-1H-pyrazolo[3,4-d]pyrimidine-4,6-diamine], for which the inhibitory constant (Ki) on mTOR came to 1 nM. In addition, the results for the IC50 against mTORC1 and against mTORC2 were 1.2 nM and 2.1 nM, respectively.

In the case of `CC1(Cn2nc(-c3cc4nc(N)oc4cc3F)c3c(N)nc(N)nc32)CCC1` [Example 4, 3-(2-amino-6-fluorobenzoxazol-5-yl)-1-(1-methylcyclobutylmethyl)-1H-pyrazolo[3,4-d]pyrimidine-4,6-diamine], the results for the IC50 against mTORC1 and against mTORC2 were 1.3 nM and 3.4 nM, respectively.

As for `CCC(C)(C)Cn1nc(-c2ccc3oc(N)nc3c2)c2c(N)nc(N)nc21` [Example 8, 3-(2-aminobenzoxazol-5-yl)-1-(2,2-dimethylbutyl)-1H-pyrazolo[3,4-d]pyrimidine-4,6-diamine], on mTOR, the Ki stood at 0.6 nM. For the same compound, the results for the half-inhibitory concentration (IC50) against mTORC1 and against mTORC2 were 1.2 nM and 3 nM, respectively.

At mTOR, `CCNc1nc2cc(-c3nn(CC(C)(C)C)c4nc(N)nc(N)c34)ccc2o1` [Example 11, 1-(2,2-dimethylpropyl)-3-(2-ethylaminobenzoxazol-5-yl)-1H-pyrazolo[3,4-d]pyrimidine-4,6-diamine] registered a Ki of 0.8 nM. Besides, the results for the IC50 at mTORC1 and on mTORC2 were 5 nM and 5.9 nM, respectively.

Take `C=CC(C)(C)Cn1nc(-c2ccc3oc(N)nc3c2)c2c(N)nc(N)nc21` [Example 12, 3-(2-aminobenzoxazol-5-yl)-1-(2,2-dimethylbut-3-enyl)-1H-pyrazolo[3,4-d]pyrimidine-4,6-diamine]: the affinity at mTOR, expressed as Ki, was 1.2 nM. For the same compound, the half-inhibitory concentration (IC50) was determined as 1.1 nM against mTORC1 and 3.7 nM against mTORC2.

Regarding `CC(C)(Cn1nc(-c2ccc3oc(N)nc3c2)c2c(N)nc(N)nc21)[C@@H]1CCCO1` [Example 13, (+)-3-(2-aminobenzoxazol-5-yl)-1-((S)-2-methyl-2-tetrahydrofuran-2-ylpropyl)-1H-pyrazolo[3,4-d]pyrimidine-4,6-diamine], the Ki at mTOR amounted to 1.2 nM. Also, the IC50 on mTORC1 was 1.4 nM; against mTORC2, 4.1 nM.

With `C#CC(C)(C)Cn1nc(-c2ccc3oc(N)nc3c2)c2c(N)nc(N)nc21` [Example 14, 3-(2-aminobenzoxazol-5-yl)-1-(2,2-dimethylbut-3-ynyl)-1H-pyrazolo[3,4-d]pyrimidine-4,6-diamine], at mTOR, the affinity corresponds to a Ki of 1.2 nM. Besides, the IC50 on mTORC1 turned out to be 1.2 nM; at mTORC2, 3.8 nM.

The compound `CC(C)(CO)Cn1nc(-c2ccc3oc(N)nc3c2)c2c(N)nc(N)nc21` [Example 15, 3-[4,6-diamino-3-(2-aminobenzoxazol-5-yl)pyrazolo[3,4-d]pyrimidin-1-yl]-2,2-dimethylpropan-1-ol] gave a Ki on mTOR of 1.5 nM. The IC50 against mTORC1 was found to be 1.7 nM; against mTORC2 it was 7.2 nM.

Regarding `CSC(C)(C)Cn1nc(-c2ccc3oc(N)nc3c2)c2c(N)nc(N)nc21` [Example 16, 3-(2-aminobenzoxazol-5-yl)-1-(2-methyl-2-methylsulfanylpropyl)-1H-pyrazolo[3,4-d]pyrimidine-4,6-diamine], the inhibition constant (Ki) on mTOR was determined as 1.7 nM. Further, the IC50 was 2.2 nM against mTORC1 and 10.2 nM on mTORC2.

The compound `CC(C)(C)Cn1nc(-c2ccc3oc(N)nc3c2Cl)c2c(N)nc(N)nc21` [Example 17, 3-(2-amino-4-chlorobenzoxazol-5-yl)-1-(2,2-dimethylpropyl)-1H-pyrazolo[3,4-d]pyrimidine-4,6-diamine] registered an inhibition constant (Ki) at mTOR of 1.8 nM. In addition, the IC50 on mTORC1 is 1.2 nM; at mTORC2 it was 4 nM.

In turn, `COc1cc2oc(N)nc2cc1-c1nn(CC(C)(C)C)c2nc(N)nc(N)c12` [Example 18, 3-(2-amino-6-methoxybenzoxazol-5-yl)-1-(2,2-dimethylpropyl)-1H-pyrazolo[3,4-d]pyrimidine-4,6-diamine] returned an inhibitory constant (Ki) at mTOR of 2.1 nM. Moreover, the IC50 is 2.1 nM against mTORC1 and 4.3 nM at mTORC2.

In turn, `CC(C)(C)Cn1nc(-c2cc3cc(O)cnc3[nH]2)c2c(N)nc(N)nc21` [Example 19, 2-[4,6-diamino-1-(2,2-dimethylpropyl)-1H-pyrazolo[3,4-d]pyrimidin-3-yl]-1H-pyrrolo[2,3-b]pyridin-5-ol] displayed a Ki at mTOR of 2.3 nM. Besides, the values for the 50% inhibitory concentration (IC50) on mTORC1 and at mTORC2 were 27.4 nM and 65.5 nM, respectively.

`CCC(C)(C)Cn1nc(-c2cc3nc(N)oc3cc2OC)c2c(N)nc(N)nc21` [Example 20, 3-(2-amino-6-methoxybenzoxazol-5-yl)-1-(2,2-dimethylbutyl)-1H-pyrazolo[3,4-d]pyrimidine-4,6-diamine] showed an inhibition constant Ki on mTOR of 2.9 nM. Further, the IC50 on mTORC1 amounted to 2.1 nM; at mTORC2, 7 nM.

With `CC(C)n1nc(-c2ccc3oc(N)nc3c2)c2c(N)nc(N)nc21` [Example 21, 3-(2-aminobenzoxazol-5-yl)-1-isopropyl-1H-pyrazolo[3,4-d]pyrimidine-4,6-diamine], the inhibitory constant (Ki) on mTOR worked out at 3.8 nM. The half-inhibitory concentration (IC50) on mTORC1 is 3.8 nM; against mTORC2, 10.7 nM.

Regarding `CCC(CC)(Cn1nc(-c2ccc3oc(N)nc3c2)c2c(N)nc(N)nc21)S(C)(=O)=O` [Example 22, 3-(2-aminobenzoxazol-5-yl)-1-(2-ethyl-2-methanesulfonylbutyl)-1H-pyrazolo[3,4-d]pyrimidine-4,6-diamine], the inhibition constant (Ki) on mTOR is 3.9 nM. In addition, the figures for the 50% inhibitory concentration (IC50) on mTORC1 and at mTORC2 were 10.2 nM and 26.6 nM, respectively.

Take `CC(C)Cn1nc(-c2ccc3oc(N)nc3c2)c2c(Cl)nc(N)nc21` [Example 23, 3-(2-aminobenzoxazol-5-yl)-4-chloro-1-isobutyl-1H-pyrazolo[3,4-d]pyrimidin-6-ylamine]: on mTOR, the inhibitory constant (Ki) was 5.8 nM. Also, the concentration for half-maximal inhibition (IC50) against mTORC1 is 2.8 nM; on mTORC2, 5.9 nM.

Take `CC(C)n1nc(-c2ccc3oc(N)nc3c2)c2cnc(N)nc21` [Example 24, 3-(2-aminobenzoxazol-5-yl)-1-isopropyl-1H-pyrazolo[3,4-d]pyrimidin-6-ylamine]: the affinity at mTOR corresponds to a Ki of 6.1 nM. Besides, the IC50 against mTORC1 was found to be 6.8 nM; on mTORC2 it was 15.5 nM.

As to `CC(C)[C@H](C)n1nc(-c2cc3nc(N)oc3cc2Cl)c2c(N)nc(N)nc21` [Example 25, 3-(2-amino-6-chlorobenzoxazol-5-yl)-1-((S)-1,2-dimethylpropyl)-1H-pyrazolo[3,4-d]pyrimidine-4,6-diamine], the Ki on mTOR was 8.1 nM. Besides, the results for the IC50 at mTORC1 and at mTORC2 were 4.5 nM and 13.1 nM, respectively.

On mTOR, `CNc1nc(N)c2c(-c3ccc4oc(N)nc4c3)nn(C(C)C)c2n1` [Example 26, 3-(2-Aminobenzoxazol-5-yl)-1-isopropyl-N^6-methyl-1H-pyrazolo[3,4-d]pyrimidine-4,6-diamine] had an inhibition constant Ki of 13.4 nM. Also, the IC50 stood at 29.7 nM on mTORC1 and 62.2 nM against mTORC2.

At mTOR, `Cc1nc(N)nc2c1c(-c1ccc3oc(N)nc3c1)nn2CC(C)(C)C` [Example 27, 5-(6-amino-4-methyl-1-neopentyl-1H-pyrazolo[3,4-d]pyrimidin-3-yl)benzo[d]oxazol-2-amine] registered an inhibitory constant (Ki) of 14.3 nM. The figures for the half-inhibitory concentration (IC50) against mTORC1 and on mTORC2 were 8.1 nM and 15.3 nM, respectively.

As for `CC(C)n1nc(-c2ccc3oc(NC4CC4)nc3c2)c2c(N)nc(N)nc21` [Example 28, 3-(2-cyclopropylaminobenzoxazol-5-yl)-1-isopropyl-1H-pyrazolo[3,4-d]pyrimidine-4,6-diamine], on mTOR, the inhibition constant Ki worked out at 21 nM. Also, the IC50 is 43.8 nM on mTORC1 and 40.2 nM at mTORC2.

Regarding `CCC(C)(C)Cn1nc(-c2cc(C)c3oc(N)nc3c2)c2c(N)nc(N)nc21` [Example 29, 3-(2-amino-7-methylbenzoxazol-5-yl)-1-(2,2-dimethylbutyl)-1H-pyrazolo[3,4-d]pyrimidine-4,6-diamine], the Ki on mTOR stood at 102 nM. Further, the IC50 turned out to be 234 nM at mTORC1 and 746 nM against mTORC2.

The Ki is a dissociation constant, usually derived from enzyme kinetics or from competition with a known ligand. High values mean weaker binding, low ones tighter binding. One may read the IC50 as the concentration needed to halve the response being measured. A high value points to weaker potency in that assay.
